# Legend:
# [1] = biological target: T1, Aurora kinase A (AURKA) (Homo sapiens, UniProt O14965); assay: Luciferase assay for AURKA in HeLa LgBit (AURKA-HiBit KI) cell line; type: cell-based; settings: HeLa LgBit (AURKA-HiBit KI) cells, measured after 12 hours
# T1 construct: endogenous in cells; host or cells: HeLa LgBit (AURKA-HiBit KI), CRISPR/Cas9 knock-in at the endogenous AURKA locus
# T1 sequence (O14965 1-403): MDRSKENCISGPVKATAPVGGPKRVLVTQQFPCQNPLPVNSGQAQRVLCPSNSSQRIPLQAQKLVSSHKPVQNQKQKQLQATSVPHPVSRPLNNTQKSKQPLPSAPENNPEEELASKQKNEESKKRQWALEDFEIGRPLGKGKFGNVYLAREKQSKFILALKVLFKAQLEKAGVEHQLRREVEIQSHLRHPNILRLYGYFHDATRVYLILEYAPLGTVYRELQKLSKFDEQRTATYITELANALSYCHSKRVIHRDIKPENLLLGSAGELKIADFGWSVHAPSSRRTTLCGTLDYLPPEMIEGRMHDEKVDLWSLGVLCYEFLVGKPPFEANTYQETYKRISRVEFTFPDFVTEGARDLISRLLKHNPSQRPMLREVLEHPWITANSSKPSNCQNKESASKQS
# In short: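 HeLa cells stably expressing LgBit, with HiBit knocked in at the C-terminus of endogenous AURKA; 3×10^4 cells seeded, 18 h, then Endurazine substrate 2 h. Compounds tested at 10 nM or 100 nM; luminescence read at 470-480 nm after 12 h as real-time read-out.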
# [2] = system: NCI-H446 cell line; assay: Cell viability assay for NCI-H446 cell line; type: cell-based; settings: Homo sapiens, NCI-H446, 120 h; H446 cells, 5 days culture, EZ-Cytox; read-out: IC50 value (Level)
# In short: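 H446 cells seeded 24 h before treatment with compound in 3-fold dilutions, 1000 to 0.15 nM, then cultured 5 days at 37 °C, 5% CO2 in RPMI 1640/10% FBS. Viability read with EZ-Cytox (4 h) as absorbance at 450 nm.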
SMILES,luminescence value (Level) ([1]; 10 nM compound),luminescence value (Level) ([1]; 100 nM compound),IC50 [2] [nM]
"O=C1CCC(c2ccc(N3CC(CN4CCC(NC(=O)c5ccc(Nc6ncc(F)c(Nc7ccc(C(=O)Nc8ccccc8Cl)cc7)n6)cc5)CC4)C3)cc2)C(=O)N1 (stereo not drawn) [Compound 8, N-(2-chlorophenyl)-4-((2-((4-((1-((1-(4-(2,6-dioxopiperidin-3-yl)phenyl)azetidin-3-yl)methyl)piperidin-4-yl)carbamoyl)phenyl)amino)-5-fluoropyrimidin-4-yl)amino)benzamide]",B (B is 0.3 to 0.5),A (A is <0.2),< 50
"C[C@H]1CN(CCC2CCN(NC(=O)c3ccc(Nc4ncc(F)c(Nc5ccc(C(=O)Nc6ccccc6Cl)cc5)n4)cc3)CC2)CCN1c1ccc(C2CCC(=O)NC2=O)cc1 (stereo partly drawn) [Compound 114, N-(2-chlorophenyl)-4-((2-((4-((4-(2-((3S)-4-(4-(2,6-dioxopiperidin-3-yl)phenyl)-3-methylpiperazin-1-yl)ethyl)piperidin-1-yl)carbamoyl)phenyl)amino)-5-fluoropyrimidin-4-yl)amino)benzamide]",A (A is <0.3),A (A is <0.2),< 50
"C[C@H](CN1CCN(c2ccc(C3CCC(=O)NC3=O)cc2)CC1)C1CCN(NC(=O)c2ccc(Nc3ncc(F)c(Nc4ccc(C(=O)Nc5ccccc5Cl)cc4)n3)cc2)CC1 (stereo partly drawn) [Compound 63, N-(2-chlorophenyl)-4-((2-((4-((4-((2S)-1-(4-(4-(2,6-dioxopiperidin-3-yl)phenyl)piperazin-1-yl)propan-2-yl)piperidin-1-yl)carbamoyl)phenyl)amino)-5-fluoropyrimidin-4-yl)amino)benzamide]",A (A is <0.3),A (A is <0.2),< 50
"CN(CC1CCN(c2ccc(C3CCC(=O)NC3=O)cc2F)CC1)[C@H]1CC[C@H](NC(=O)c2ccc(Nc3ncc(F)c(Nc4ccc(C(=O)Nc5ccccc5Cl)cc4)n3)cc2)CC1 (stereo partly drawn) [Compound 80, N-(2-chlorophenyl)-4-((2-((4-(((1r,4r)-4-(((1-(4-(2,6-dioxopiperidin-3-yl)-2-fluorophenyl)piperidin-4-yl)methyl)(methyl)amino)cyclohexyl)carbamoyl)phenyl)amino)-5-fluoropyrimidin-4-yl)amino)benzamide]",A (A is <0.3),A (A is <0.2),50 to 100
"CN(c1cccc(N2CCC(CN3CCN(C(=O)Cc4ccc(Nc5ncc(F)c(Nc6ccc(C(=O)Nc7ccccc7Cl)cc6)n5)cc4)CC3)CC2)c1)C1CCC(=O)NC1=O (stereo not drawn) [Compound 45, N-(2-chlorophenyl)-4-((2-((4-(2-(4-((1-(3-((2,6-dioxopiperidin-3-yl)(methyl)amino)phenyl)piperidin-4-yl)methyl)piperazin-1-yl)-2-oxoethyl)phenyl)amino)-5-fluoropyrimidin-4-yl)amino)benzamide]",C (C is 0.5 to 0.7),B (B is 0.2 to 0.4),50 to 100
"O=C1CCC(c2cc(F)c(N3CCN(CCC4CCN(NC(=O)c5ccc(Nc6ncc(F)c(Nc7ccc(NC(=O)c8ccccc8F)cc7)n6)cc5F)CC4)CC3)cc2F)C(=O)N1 (stereo not drawn) [Compound 112, N-[4-[2-[4-[4-(2,6-dioxo-3-piperidyl)-2,5-difluoro-phenyl]piperazin-1-yl]ethyl]-1-piperidyl]-2-fluoro-4-[[5-fluoro-4-[4-[(2-fluorobenzoyl)amino]anilino]pyrimidin-2-yl]amino]benzamide]",A (A is <0.3),A (A is <0.2),< 50
"O=C1CCC(c2ccc(N3CCC(CCC(=O)N4CCC(NC(=O)c5ccc(Nc6ncc(F)c(Nc7ccc(C(=O)Nc8ccccc8Cl)cc7)n6)cc5)CC4)CC3)cc2)C(=O)N1 (stereo not drawn) [Compound 12, N-(2-chlorophenyl)-4-((2-((4-((1-(3-(1-(4-(2,6-dioxopiperidin-3-yl)phenyl)piperidin-4-yl)propanoyl)piperidin-4-yl)carbamoyl)phenyl)amino)-5-fluoropyrimidin-4-yl)amino)benzamide]",B (B is 0.3 to 0.5),A (A is <0.2),< 50
"O=C1CCC(c2ccc(N3CCN(CC4CCN(C(=O)c5ccc(Nc6ncc(F)c(Nc7ccc(C(=O)Nc8ccccc8Cl)cc7)n6)cc5)CC4)CC3)cc2)C(=O)N1 (stereo not drawn) [Compound 3, N-(2-chlorophenyl)-4-((2-((4-(4-((4-(4-(2,6-dioxopiperidin-3-yl)phenyl)piperazin-1-yl)methyl)piperidine-1-carbonyl)phenyl)amino)-5-fluoropyrimidin-4-yl)amino)benzamide]",C (C is 0.5 to 0.7),A (A is <0.2),50 to 100
"Cn1c(=O)n(C2CCC(=O)NC2=O)c2ccc(N3CCN(CCC4CCN(NC(=O)c5ccc(Nc6ncc(F)c(Nc7ccc(C(=O)Nc8ccccc8Cl)cc7)n6)cc5)CC4)CC3)cc21 (stereo not drawn) [Compound 106, N-(2-chlorophenyl)-4-((2-((4-((4-(2-(4-(1-(2,6-dioxopiperidin-3-yl)-3-methyl-2-oxo-2,3-dihydro-1H-benzo[d]imidazol-5-yl)piperazin-1-yl)ethyl)piperidin-1-yl)carbamoyl)phenyl)amino)-5-fluoropyrimidin-4-yl)amino)benzamide]",A (A is <0.3),A (A is <0.2),100 to 150
"O=C1CCC(c2ccc(N3CCN(CCC4CCN(NC(=O)c5ccc(Nc6ncc(F)c(Nc7ccc(C(=O)Nc8ccccc8F)cc7)n6)cc5)CC4)CC3)cc2)C(=O)N1 (stereo not drawn) [Compound 90, 4-[[2-[4-[[4-[2-[4-[4-(2,6-dioxo-3-piperidyl)phenyl]piperazin-1-yl]ethyl]-1-piperidyl]carbamoyl]anilino]-5-fluoro-pyrimidin-4-yl]amino]-N-(2-fluorophenyl)benzamide]",A (A is <0.3),A (A is <0.2),< 50
"CC(CN1CCN(c2ccc(C3CCC(=O)NC3=O)cc2)CC1)C1CCN(NC(=O)c2ccc(Nc3ncc(F)c(Nc4ccc(C(=O)Nc5ccccc5Cl)cc4)n3)cc2)CC1 (stereo not drawn) [Compound 6, N-(2-chlorophenyl)-4-((2-((4-((4-(1-(4-(4-(2,6-dioxopiperidin-3-yl)phenyl)piperazin-1-yl)propan-2-yl)piperidin-1-yl)carbamoyl)phenyl)amino)-5-fluoropyrimidin-4-yl)amino)benzamide]",B (B is 0.3 to 0.5),A (A is <0.2),< 50
"CN(CC1CCN(c2ccc(NC3CCC(=O)NC3=O)cc2F)CC1)[C@H]1CC[C@H](NC(=O)c2ccc(Nc3ncc(F)c(Nc4ccc(C(=O)Nc5ccccc5Cl)cc4)n3)cc2)CC1 (stereo partly drawn) [Compound 66, N-(2-chlorophenyl)-4-[[2-[4-[[4-[[1-[4-[(2,6-dioxo-3-piperidyl)amino]-2-fluoro-phenyl]-4-piperidyl]methyl-methyl-amino]cyclohexyl]carbamoyl]anilino]-5-fluoro-pyrimidin-4-yl]amino]benzamide]",A (A is <0.3),A (A is <0.2),< 50
"O=C1CCC(Nc2ccc(N3CCC(CN4CCN(C(=O)Cc5ccc(Nc6ncc(F)c(Nc7ccc(C(=O)Nc8ccccc8Cl)cc7)n6)cc5)CC4)CC3)cc2)C(=O)N1 (stereo not drawn) [Compound 24, N-(2-chlorophenyl)-4-((2-((4-(2-(4-((1-(4-((2,6-dioxopiperidin-3-yl)amino)phenyl)piperidin-4-yl)methyl)piperazin-1-yl)-2-oxoethyl)phenyl)amino)-5-fluoropyrimidin-4-yl)amino)benzamide]",B (B is 0.3 to 0.5),A (A is <0.2),< 50
"CCC(CN1CCN(c2ccc(C3CCC(=O)NC3=O)cc2)CC1)C1CCN(NC(=O)c2ccc(Nc3ncc(F)c(Nc4ccc(C(=O)Nc5ccccc5Cl)cc4)n3)cc2)CC1 (stereo not drawn) [Compound 72, N-(2-chlorophenyl)-4-((2-((4-((4-(1-(4-(4-(2,6-dioxopiperidin-3-yl)phenyl)piperazin-1-yl)butan-2-yl)piperidin-1-yl)carbamoyl)phenyl)amino)-5-fluoropyrimidin-4-yl)amino)benzamide]",B (B is 0.3 to 0.5),A (A is <0.2),< 50
"CC(CN1CCN(c2ccc(C3CCC(=O)NC3=O)cc2)CC1)N1CCC(NC(=O)c2ccc(Nc3ncc(F)c(Nc4ccc(C(=O)Nc5ccccc5Cl)cc4)n3)cc2)CC1 (stereo not drawn) [Compound 67, N-(2-chlorophenyl)-4-((2-((4-((1-(1-(4-(4-(2,6-dioxopiperidin-3-yl)phenyl)piperazin-1-yl)propan-2-yl)piperidin-4-yl)carbamoyl)phenyl)amino)-5-fluoropyrimidin-4-yl)amino)benzamide]",B (B is 0.3 to 0.5),A (A is <0.2),100 to 150

# From patent US20260226071A1, “2, 4-DIANILINOPYRIMIDINE-BASED AURORA-A KINASE SELECTIVE DEGRADATION INDUCING COMPOUNDS” (UPPTHERA, INC., priority 2023, published 2026)
